Test results as given in patent publication US20110008465A1, “SESQUITERPENE FORMULATIONS, KITS AND METHODS OF USE THEREOF” (priority 2007, published 2011).

Legend:
Assay in all cases: Chou and Talalay combination assay with beta-caryophyllene
Settings in all cases: anticancer drug in combination with beta-caryophyllene; Chou and Talalay CI; 48 h
[1] = test system: A-549 (lung cancer); format: cell-based, human
Method: (§1) Each solution was prepared fresh and use within 1 hour after preparation.
(§2) Cells were then harvested using trypsine-EDTA. Cells were counted using a hemocytometer and resuspended in DMEM+10% FBS medium.
(§3) Proliferation assay: Increasing concentrations of the anticancer agents and/or beta-caryophyllene were added to 96-well plate (100 μL per well). The final concentration of solvent in the culture medium was maintained below 0.5% (volume/volume) to avoid solvent toxicity.
(§4) The cells were incubated for 48 h at 37° C. and 5% CO2. Cytotoxicity was assessed using the resazurin reduction test (O'Brien et al., 2000). Fluorescence was measured on an automated 96-well Fluoroskan Ascent FI™ plate reader (Labsystems) using excitation and emission wavelengths of 530 nm and 590 nm, respectively. Resazurin was then removed.
(§5) Microplates were frozen at −20° C. overnight. Plates were thawed, a volume of 100 μl of 0.01% SDS in water was added to the wells, the plates were shaken at room temperature for 3 hours and then frozen once more at −20° C. overnight. […] Plates were shaken in the dark (at room temperature) for at least 2 hours, and fluorescence was measured on an automated 96-well Fluoroskan Ascent FI™ plate reader (Labsystems) using excitation and emission wavelengths of 360 nm and 460 nm, respectively.
(§6) Results were analyzed using the Chou and Talalay method (9) and may be interpreted as follow: Cl>1 represents an antagonist effect of beta-caryophyllene with the corresponding anticancer agent; Cl=1 represents an additive effect of beta-caryophyllene with the corresponding anticancer agent; Cl<1 represents a potentiating effect of beta-caryophyllene with the corresponding anticancer agent.

[2] = test system: DLD-1 (colon cancer); format: cell-based, human
Method: as §1, §2, §3, §4, §5, §6

[3] = test system: MCF-7 (breast cancer); format: cell-based, human
Method: as §1, §2, §3, §4, §5, §6

[4] = test system: MDA-MB-231 (breast cancer); format: cell-based, human
Method: as §1, §2, §3, §4, §5, §6

[5] = test system: PA-1 (ovary cancer); format: cell-based, human
Method: as §1, §2, §3, §4, §5, §6

[6] = test system: PC-3 (prostate cancer); format: cell-based, human
Method: as §1, §2, §3, §4, §5

[7] = test system: B16 (murine melanoma); format: cell-based
Method: as §1, §2, §3, §4, §5, §6

[8] = test system: GL-261 (murine glioblastoma); format: cell-based
Method: as §1, §2, §3, §4, §5, §6

[9] = test system: MEL-2 (human melanoma); format: cell-based
Method: as §1, §2, §3, §4, §5, §6

[10] = test system: U-251 (human glioblastoma); format: cell-based
Method: as §1, §2, §3, §4, §5, §6

Compound | Potentiating activity A-549 [1] | Potentiating activity DLD-1 [2] | Potentiating activity MCF-7 [3] | Potentiating activity MDA [4] | Potentiating activity PA-1 [5] | Potentiating activity PC-3 [6] | Potentiating activity B16 [7] | Potentiating activity GL-261 [8] | Potentiating activity MEL-2 [9] | Potentiating activity U-251 [10]
vincristine sulfate salt | (2) (High: CI below 0.5 at IC50) | (1) (Very High: CI equal or below 1 at IC20 and Cl below 0.6 to IC50) | (1) (Very High: CI equal or below 1 at IC20 and Cl below 0.6 to IC50) | (3) (Moderate: 0.5 < CI < 0.8 at IC50) | (1) (Very High: potentiating or additive activity to IC20 and CI < 0.6 to IC50) | (1) (Very High: potentiating or additive activity to IC20 and CI < 0.6 to IC50) | (1) (Very High: potentiating or additive activity to IC20 and CI < 0.6 to IC50) | (1) (Very High: potentiating or additive activity to IC20 and CI < 0.6 to IC50) | (1) (Very High: potentiating or additive activity to IC20 and CI < 0.6 to IC50) | (1) (Very High: potentiating or additive activity to IC20 and CI < 0.6 to IC50)
O=C1c2c(O)ccc(O)c2C(=O)c2c(NCCNCCO)ccc(NCCNCCO)c21 [Mitoxantrone] | (5) (Additive effect: CI = 1) | (5) (Additive effect: CI = 1) | (1) (Very High: CI equal or below 1 at IC20 and Cl below 0.6 to IC50) | (3) (Moderate: 0.5 < CI < 0.8 at IC50) | (2) (High: CI < 0.5 to IC50) | (5) (Additive effect: CI = 1) | (3) (Moderate: 0.5 < CI < 0.8 to IC50) | (1) (Very High: potentiating or additive activity to IC20 and CI < 0.6 to IC50) | (3) (Moderate: 0.5 < CI < 0.8 to IC50) | (4) (Weak: 0.8 < CI < 1 to IC50)
CN(Cc1cnc2nc(N)nc(N)c2n1)c1ccc(C(=O)N[C@@H](CCC(=O)O)C(=O)O)cc1 [Methotrexate] | (4) (Weak: 0.8 < CI < 1 at IC50) | (4) (Weak: 0.8 < CI < 1 at IC50) | (2) (High: CI below 0.5 at IC50) | (6) (Antagonist effect: CI > 1) | (1) (Very High: potentiating or additive activity to IC20 and CI < 0.6 to IC50) | (6) (Antagonist effect: CI > 1) | (6) (Antagonist effect: CI > 1) | (6) (Antagonist effect: CI > 1) | (1) (Very High: potentiating or additive activity to IC20 and CI < 0.6 to IC50) | (2) (High: CI < 0.5 to IC50)
COc1cc([C@@H]2c3cc4c(cc3[C@@H](O[C@@H]3O[C@@H]5CO[C@@H](C)O[C@H]5[C@H](O)[C@H]3O)[C@H]3COC(=O)[C@H]23)OCO4)cc(OC)c1O [Etoposide, etoposide] | (4) (Weak: 0.8 < CI < 1 at IC50) | (3) (Moderate: 0.5 < CI < 0.8 at IC50) | (1) (Very High: CI equal or below 1 at IC20 and Cl below 0.6 to IC50) | (1) (Very High: CI equal or below 1 at IC20 and Cl below 0.6 to IC50) | (1) (Very High: potentiating or additive activity to IC20 and CI < 0.6 to IC50) | (6) (Antagonist effect: CI > 1) | (3) (Moderate: 0.5 < CI < 0.8 to IC50) | (2) (High: CI < 0.5 to IC50) | (3) (Moderate: 0.5 < CI < 0.8 to IC50) | (3) (Moderate: 0.5 < CI < 0.8 to IC50)
